Data set [1] relates to S. pneumoniae strains Avery's, R6, and TIGR4. The data set is described as follows: In vitro incubation of log-phase S. pneumoniae with cholesterol (optical density, plating). The settings on record: 3 hours. Format: cell-based, Streptococcus pneumoniae. As for the experimental part:
To determine if cholesterol is bactericidal, log-phase S. pneumoniae were incubated with cholesterol. Three S. pneumoniae strains, Avery's, R6, and TIGR4, were diluted from overnight cultures and grown to log phase (A600=0.3). These bacteria were then incubated with 1% cholesterol in 20% glycerol, 20% glycerol alone, or PBS. The optical density of each strain was determined once per hour for 3 hours, and bacterial loads were determined by plating dilutions of the bacteria onto chocolate agar. […] While cholesterol prevented growth in vitro (outside the cornea), cholesterol had no effect on bacterial growth in the cornea. (See above). Topical application of cholesterol could be used to decrease the numbers of S. pneumoniae on the outside surface of the cornea, and inhibit bacterial infiltration of the corneal surface.

Data set [2] deals with encapsulated S. pneumoniae. The data set can be described thus: Rabbit S. pneumoniae keratitis, slit lamp examination (SLE) score. The settings on record: topical 1% cholesterol in 20% glycerol, 20 and 24 hours post-infection.
For the next data set, the system named is Staphylococcus aureus. The data set can be described thus: Rabbit Staphylococcus aureus keratitis treated with cholesterol. Format: in vivo. The settings on record: cholesterol 1% in 20% glycerol.
The next data set addresses alpha-toxin (Staphylococcus aureus, UniProt P09616). The conditions noted are these: in vivo.
Data set [3] can be described thus: Test whether cholesterol independently causes inflammation in rabbit corneas (topical drops or intrastromal injection). The conditions noted are these: one cornea, examined up to 48 hours post-injection. The data set is classed as in vivo. The method, then:
The applications were 30 minutes apart for the first hour, and the remaining applications were 1 hour apart. The corneas were examined periodically for several days. […] The possible effect of cholesterol injected into the corneal stroma was also examined. […] The corneas were examined every 2 hours for the first 8 hours, and then at 24, 30, and 48 hours post-injection.

Data set [4] relates to encapsulated S. pneumoniae. The data set can be described thus: Bacterial load in infected rabbit corneas. Format: in vivo, Streptococcus pneumoniae. The settings on record: topical application. The method, then: Sacrifice of the rabbits occurred immediately following the last SLE time (48 hours post-infection) to avoid unnecessary pain. Corneas were harvested for bacterial quantification or for histopathologic analysis. […] Bacterial loads were determined for control corneas (treated with 20% glycerol only) and corneas treated with the topical cholesterol (1% in 20% glycerol). The bacterial load in the control corneas ranged from 2.48 to 6.60 log colony-forming units, while in the treated corneas the load was 3.68 to 6.59 log colony-forming units.

Here are results for one molecule from patent US7906498B2, “Cholesterol as an antibiotic for Streptococcus pneumoniae” (priority 2005, dated 2011).

alpha-toxin, sequence (P09616 27-319 limits assumed): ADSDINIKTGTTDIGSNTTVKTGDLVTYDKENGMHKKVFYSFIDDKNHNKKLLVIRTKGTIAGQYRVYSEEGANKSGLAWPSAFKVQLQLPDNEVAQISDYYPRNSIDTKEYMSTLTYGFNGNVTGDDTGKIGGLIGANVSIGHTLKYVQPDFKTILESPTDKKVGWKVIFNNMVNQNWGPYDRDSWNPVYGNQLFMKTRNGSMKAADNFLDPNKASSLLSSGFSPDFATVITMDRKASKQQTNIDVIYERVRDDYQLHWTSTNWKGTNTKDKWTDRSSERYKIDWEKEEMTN

For `CC(C)CCC[C@@H](C)[C@H]1CC[C@H]2[C@@H]3CC=C4C[C@@H](O)CC[C@]4(C)[C@H]3CC[C@]12C` [cholesterol], the “effect on bacterial growth in vitro” value in data set [1] (strain Avery's, 1% cholesterol in 20% glycerol) is listed as “prevented the growth”; in data set [1] (strain R6, 1% cholesterol in 20% glycerol) it was “prevented the growth”. In addition, in data set [2], the “corneal severity (SLE), treated versus untreated corneas” value is “essentially the same”. In the data set with Staphylococcus aureus, the “inhibition of damaging effects in S. aureus-infected corneas” value was “ineffective”. Besides, at alpha-toxin, the “reduction of pathology associated with alpha-toxin” value is given as “ineffective”. Also, the “inflammation or adverse effect after injection into corneal stroma” value in data set [3] ([…]) and in data set [3] (injection of 0.5% cholesterol in 10% glycerol) was “No inflammation or adverse effect was observed” each time. The “bactericidal effect on bacteria once inside the cornea” value in data set [4] is “does not have a bactericidal effect”.
